Assay results: ChEMBL document CHEMBL4118154, “Discovery of evocalcet, a next-generation calcium-sensing receptor agonist for the treatment of hyperparathyroidism” (Bioorg Med Chem Lett, 2018)
pIC50: −log10 of the molar value. Calls of active or inactive are those of the source. The rule behind the calls is not given here.

Columns and labels:
[1] = Intrinsic clearance in human liver microsomes assessed per protein; assay type: ADME, microsome; conditions: read-out: CLH
[2] = biological target: T1, CYP2B6 (Homo sapiens, UniProt P20813); test: Inhibition of CYP2B6 (unknown origin); assay type: ADME
T1 sequence (P20813 whole entry): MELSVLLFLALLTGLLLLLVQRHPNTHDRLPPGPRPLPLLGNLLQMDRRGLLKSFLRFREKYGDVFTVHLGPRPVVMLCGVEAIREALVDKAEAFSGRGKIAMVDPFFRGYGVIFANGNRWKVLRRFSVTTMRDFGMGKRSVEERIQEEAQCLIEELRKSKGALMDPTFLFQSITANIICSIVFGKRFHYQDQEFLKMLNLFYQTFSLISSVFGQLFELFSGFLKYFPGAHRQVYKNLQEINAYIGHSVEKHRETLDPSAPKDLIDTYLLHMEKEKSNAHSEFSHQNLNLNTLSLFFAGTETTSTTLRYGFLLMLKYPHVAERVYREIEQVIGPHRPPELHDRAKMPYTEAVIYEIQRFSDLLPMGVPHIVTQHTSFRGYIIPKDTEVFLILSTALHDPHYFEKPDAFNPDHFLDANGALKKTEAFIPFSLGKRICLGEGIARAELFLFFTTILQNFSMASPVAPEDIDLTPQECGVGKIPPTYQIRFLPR

[3] = biological target: T2, CYP2A6 (Homo sapiens, UniProt P11509); test: Inhibition of CYP2A6 (unknown origin); assay type: ADME
T2 sequence (P11509 whole entry): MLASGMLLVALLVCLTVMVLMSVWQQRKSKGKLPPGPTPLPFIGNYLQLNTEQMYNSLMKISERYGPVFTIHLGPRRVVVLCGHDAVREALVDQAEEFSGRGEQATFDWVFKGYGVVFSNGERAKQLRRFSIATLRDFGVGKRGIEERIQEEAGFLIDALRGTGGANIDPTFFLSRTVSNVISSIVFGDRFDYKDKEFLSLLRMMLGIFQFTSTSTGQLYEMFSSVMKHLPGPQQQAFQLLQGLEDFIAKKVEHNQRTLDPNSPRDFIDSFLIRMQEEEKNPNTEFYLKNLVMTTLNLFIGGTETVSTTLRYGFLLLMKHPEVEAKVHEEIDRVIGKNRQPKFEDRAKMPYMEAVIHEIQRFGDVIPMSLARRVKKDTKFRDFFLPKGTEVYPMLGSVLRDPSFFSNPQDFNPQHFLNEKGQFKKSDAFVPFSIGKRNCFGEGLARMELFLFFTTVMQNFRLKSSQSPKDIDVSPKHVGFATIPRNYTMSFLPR

[4] = biological target: T3, CYP1A2 (Homo sapiens, UniProt P05177); test: Inhibition of CYP1A2 (unknown origin); assay type: ADME
T3 sequence (P05177 whole entry): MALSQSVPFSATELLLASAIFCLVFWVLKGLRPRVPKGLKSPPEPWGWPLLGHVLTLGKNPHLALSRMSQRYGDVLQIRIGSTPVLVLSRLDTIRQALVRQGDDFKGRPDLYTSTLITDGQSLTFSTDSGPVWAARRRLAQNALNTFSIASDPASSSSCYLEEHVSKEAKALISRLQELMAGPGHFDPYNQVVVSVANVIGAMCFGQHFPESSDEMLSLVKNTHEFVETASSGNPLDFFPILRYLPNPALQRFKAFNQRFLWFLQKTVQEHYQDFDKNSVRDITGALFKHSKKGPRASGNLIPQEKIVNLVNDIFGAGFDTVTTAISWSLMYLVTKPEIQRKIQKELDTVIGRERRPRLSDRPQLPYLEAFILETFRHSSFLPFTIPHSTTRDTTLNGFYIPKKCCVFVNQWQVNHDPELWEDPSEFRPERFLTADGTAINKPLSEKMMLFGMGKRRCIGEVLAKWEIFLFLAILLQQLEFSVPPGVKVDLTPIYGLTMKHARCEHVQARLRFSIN

[5] = biological target: T4, Extracellular calcium-sensing receptor (Homo sapiens) (UniProt P41180); test: Binding affinity to human CaSR expressed in HEK293 cells after 30 mins in presence of NPS 568 by liquid scintillation counting method; assay type: cell-based
T4 sequence (whole entry): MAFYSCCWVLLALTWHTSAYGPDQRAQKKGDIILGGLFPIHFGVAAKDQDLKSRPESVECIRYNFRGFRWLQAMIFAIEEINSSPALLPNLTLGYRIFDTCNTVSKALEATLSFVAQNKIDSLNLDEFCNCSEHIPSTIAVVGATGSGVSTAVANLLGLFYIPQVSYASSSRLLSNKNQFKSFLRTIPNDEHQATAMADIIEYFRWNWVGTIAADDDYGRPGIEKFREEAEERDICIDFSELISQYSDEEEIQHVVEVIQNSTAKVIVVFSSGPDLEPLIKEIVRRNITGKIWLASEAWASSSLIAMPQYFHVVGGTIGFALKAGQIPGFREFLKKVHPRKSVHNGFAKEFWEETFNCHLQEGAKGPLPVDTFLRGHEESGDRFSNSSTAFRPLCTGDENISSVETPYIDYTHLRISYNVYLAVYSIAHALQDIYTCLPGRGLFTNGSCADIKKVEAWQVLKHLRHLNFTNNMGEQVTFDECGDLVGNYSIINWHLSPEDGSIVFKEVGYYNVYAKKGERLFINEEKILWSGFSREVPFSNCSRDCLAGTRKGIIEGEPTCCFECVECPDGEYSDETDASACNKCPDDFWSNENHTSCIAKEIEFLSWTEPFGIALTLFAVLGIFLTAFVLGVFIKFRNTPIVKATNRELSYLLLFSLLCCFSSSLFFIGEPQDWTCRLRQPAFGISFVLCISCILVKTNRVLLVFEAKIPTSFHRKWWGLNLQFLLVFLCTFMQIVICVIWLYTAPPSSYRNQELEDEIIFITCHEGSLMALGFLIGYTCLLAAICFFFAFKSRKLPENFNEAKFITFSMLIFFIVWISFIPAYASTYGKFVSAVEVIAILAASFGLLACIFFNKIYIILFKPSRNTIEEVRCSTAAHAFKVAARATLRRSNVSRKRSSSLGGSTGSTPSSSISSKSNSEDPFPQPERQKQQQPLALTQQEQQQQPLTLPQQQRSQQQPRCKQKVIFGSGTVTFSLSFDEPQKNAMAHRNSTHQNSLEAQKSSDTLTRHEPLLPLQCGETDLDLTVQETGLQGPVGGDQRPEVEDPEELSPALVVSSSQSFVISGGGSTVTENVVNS

- microsomal CLint [1]: 68 µL/min/mg
- pIC50 [2]: < 4.30
- pIC50 [3]: < 4.30
- pIC50 [4]: < 4.30
- Activity [5]: inactive
Structure (SMILES): C[C@@H](N[C@H]1CCN(c2ccc(CC(=O)O)cc2)C1)c1cccc2ccccc12.Cl.Cl
